This is an account of results in EP0099121A2, “Pharmaceutical compositions” (Bristol-Myers Company, priority 1982, dated 1984).

For series [1] the following is noted: daily oral doses of 700 mg for up to three months; cited from earlier work.
For a further series, the system named is duodenal ulcer. To be noted: 100 mg doses seven times a day, cited from earlier work.
Series [2] has as its system pepsin. Briefly: 18 hour pylorus ligated rat. It is filed as in vivo. The following applies: 20 mg/kg po.
The conditions of series [3]: cited from earlier work.
A further series concerns gastric ulcer. The following applies: 100 mg doses seven times a day, versus placebo; cited from earlier work.
The subject of series [4] is pepsin. The following applies: duodenal ulcer; cited from earlier work.
For series [5], the system named is pepsin. The following applies: in the feed at >50 ppm; cited from earlier work.
For a further series, the system named is stomach ulcers. The following applies: rat, in vivo; cited from earlier work.
The subject of series [6] is pepsin. The following applies: cited from earlier work.
The subject of series [7] is pepsin. The following applies: patients with ulcer dyspepsia; cited from earlier work.
For series [8] the following is noted: all animal species studied; cited from earlier work.

Like-named read-outs stand apart in the source and are kept apart here. Where a SMILES comes first, the peptide text is derived from it. [ ]: non-standard residue; d: D form. The star is where a group is joined. Sta = CC(C)C[C@H](N)[C@@H](O)CC(=O)O; Isovaleryl = CC(C)CC(=O)*

Take `CC(C)CC(=O)N[C@H](C(=O)N[C@H](C(=O)N[C@@H](CC(C)C)[C@@H](O)CC(=O)N[C@@H](C)C(=O)N[C@@H](CC(C)C)[C@@H](O)CC(=O)O)C(C)C)C(C)C` [pepstatin] (Isovaleryl-VV[Sta]A[Sta]-OH): the side effects result in [1] is reported as “no side effects were observed”. The “healing or symptomatology of duodenal ulcer” value with duodenal ulcer (versus placebo) was “no significant difference between pepstatin and placebo”. For the same molecule, the “duration of inhibition of peptic activity of gastric juice” value with duodenal ulcer is recorded as 18 hours a day. In the series with pepsin [2], the pepsin activity result is reported as “completely inhibited” and the ulcer formation entry was “antagonized ulcer formation”. In addition, the “excreted in the feces” value in series [3] (animal studies, oral, within 72 hours) is “more than 90%”. Further, the “absorption upon oral administration” value in series [3] is listed as “essentially unabsorbed”. In [3] (listed as Pepstatin), the “absorption upon oral administration” value is given as “only poorly absorbed”. Besides, in the series on gastric ulcer, the “healing or symptomatology of gastric ulcer” value is recorded as “not able to detect any influence”. Besides, the “benefit in patients with duodenal ulcer” value with pepsin [4] is “ineffective”. Besides, in the series with pepsin [5], the occurrence of ulcers entry is listed as “prevented the occurrence of ulcers” and the “pepsin activity in the gastric juice” value is on record as “inhibited pepsin activity”. Besides, the “formation of stomach ulcers” value in the series with stomach ulcers was “prevent the formation of stomach ulcers”. Further, the “duration of pepsin suppression” value in the series on pepsin [6] was “about 1 hours”. In the series with pepsin [7], the “effect on the gastric acidity” value is “no effect” and the gastric peptic activity result is “inhibits gastric peptic activity”. In addition, in series [8], the LD50 entry was “exceeded 3000 mg/kg”.
